Results taken from US20250197425A1, “2,6,9-TRISUBSTITUTED PURINES” (ASTRAZENECA AB, priority 2022, published 2025).
In brackets after ≈: the same amount, converted by molar mass. Where two headings read alike, the source gives them in different places.

Columns and labels:
[1] = system: POLR2A Ser2 phosphorylation (CDK9); assay: POLR2A Ser2 phosphorylation imaging assay in MCF-7 cells; type: cell-based; settings: read-out: POLR2A Ser2 phosphorylation IC50
Procedure, shortened: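 MCF-7 cells were fixed, permeabilised and immunostained for POLR2A phospho-Ser2, then imaged by high-content microscopy. Levels were normalised to controls and IC50 values derived.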

MCF-7 cells = assay: Cellular proliferation EdU assay, MCF-7; type: cell-based; settings: EdU assay, two days, read-out: MCF-7 IC50
Procedure, shortened: (§1)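 MCF-7 (800 cells/well) and OVCAR3 (1200 cells/well) in RPMI with 10% FBS exposed to compounds for two days at 37 °C.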

OVCAR3 cells [2] = assay: Cellular proliferation EdU assay, OVCAR3; type: cell-based, human; settings: EdU assay, two days, read-out: OVCAR3 IC50
Procedure, shortened: as §1

[3] = biological target: 379 non-CDK kinase (or non-CDK kinase-complex) targets; assay: Kinase profiling (SelectScreen, ThermoFisher); type: biochemical; settings: compared with Compound 6
Description: Test compounds were profiled against a broad panel of kinases at ThermoFisher Scientific using the SelectScreen Kinase Profiling Services. Each kinase assay used one of the following assay technology protocols: • 1) Z-LYTE™ Screening Protocol and Assay Conditions (Revised 23 Jan. 2018 version) available at http://assets.thermofisher.com/TFS-Assets/BID/Methods-&-Protocols/20180123_SSBK_Customer_Protocol_and_Assay_Conditions.pdf; • 2) Adapta™ Screening Protocol and Assay Conditions (Revised 23 Jan. 2018 version) available at http://assets.thermofisher.com/TFS-Assets/BID/Methods-&-Protocols/20180123_SSBK_Adapta_Customer_Protocol_and_Assay_Conditions.pdf; or • 3) LanthaScreen™ Eu Kinase Binding Assay Screening Protocol and Assay Conditions (Revised 23 Jan. 2018 version) available at http://assets.thermofisher.com/TFS-Assets/BID/Methods-&-Protocols/20180123_SSBK_LanthaScreen_Binding_Customer_Protocol_and_Assay_Co nditions.pdf.

OVCAR3 cells [4] = assay: Cell proliferation CyQUANT assay, OVCAR3; type: cell-based; settings: Homo sapiens, OVCAR-3, 168 h; CyQUANT cell counts, 7 days
Experimental: (§2) An imaging-based assay was used to investigate changes in cell number in OVCAR3 cells (CCNE1-amplified ovarian cancer cell line) and SKOV3 cells (non-amplified ovarian cancer cell line) treated with test compounds.
(§3) Cells were plated in 384 well plates (Perkin-Elmer 6057300) in RPMI-1640/10% FBS/1× L-Glu at 500 cells per well in 30 μL and incubated with test compound at 37° C. and 5% CO2 for 7 days. Cells were then stained using the CyQuant Direct Cell Proliferation Assay Kit (Thermo Cat #C7026) in accordance with the kit protocol. The stained cells were imaged using an Operetta high content imager to generate cell counts and IC50 values were calculated relative to DMSO controls.

SKOV3 cells = assay: Cell proliferation CyQUANT assay, SKOV3; type: cell-based; settings: Homo sapiens, SK-OV-3, 168 h; CyQUANT cell counts, 7 days
Experimental: as §2, §3

[5] = system: OVCAR3 human ovarian cancer xenograft; assay: Anti-tumor effect in CCNE1 amplified ovarian xenograft model OVCAR3; type: in vivo, mice; settings: OVCAR3 xenograft
Experimental: 15 Million OVCAR3 human ovarian cells were implanted subcutaneously in the right flank of female CB17 SCID mice. Mice were randomized into groups of 8 when average tumor volume reached approximately 160 mm^3. […] Palbociclib was dosed orally once daily.

OVCAR3 cells [6] = assay: Effect on cell cycle in OVCAR3 cell line (flow cytometry); type: cell-based, human; settings: 20 to 24 hours, 0.03, 0.1, 0.3, 1, and 3 μM
Experimental: Compounds were tested in the CCNE1-amplified ovarian cell line OVCAR3 to assess their effect on cell cycle phases G1 and S and potential off-target effects on cell cycle phases G2 and M.
OVCAR3 cells were seeded at 60,000 cells per well in 24 well plates, 4 wells per sample, in RPMI with 10% Fetal bovine serum. Test compounds were diluted in 96 well plates in dimethyl sulfoxide (DMSO) and then added to the wells containing the cells. The 24 well plates were placed in an incubator maintained at 37° C. and 5% CO2 and incubated for 20 to 24 hours. The next day an EdU assay was performed following the manufacturer's protocol (Thermo Fisher, C10425 EdU Alexa Fluor 488). Antibody staining was carried out using PE Mouse Anti-Cleaved PARP (BD Biosciences Catalog No. 552933) and 4′,6-diamidino-2-phenylindole (DAPI). Cells were then analyzed by flow cytometry.

CDK2:CCNE1 = CDK2:CCNE1 (Homo sapiens (Human), UniProt P24941); assay: NanoBRET assay in MCF-7 cells, CDK2; type: cell-based; settings: transfected MCF-7 cells, 2 hours, n = 1 or average
Procedure, shortened: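 In live MCF-7 cells, compound added followed by NanoBRET TE Tracer K-9 (stock 200 μM) for CDK2, 2 h at 37° C, 5% CO2.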

CDK1:CCNB1 = CDK1:CCNB1 (Homo sapiens (Human), UniProt P06493); assay: NanoBRET assay in MCF-7 cells, CDK1; type: cell-based; settings: NanoBRET, transfected MCF-7 cells, 2 hours; n = 1 or average; read-out: CDK1 IC50
Chain of CDK1:CCNB1 (P06493 whole entry): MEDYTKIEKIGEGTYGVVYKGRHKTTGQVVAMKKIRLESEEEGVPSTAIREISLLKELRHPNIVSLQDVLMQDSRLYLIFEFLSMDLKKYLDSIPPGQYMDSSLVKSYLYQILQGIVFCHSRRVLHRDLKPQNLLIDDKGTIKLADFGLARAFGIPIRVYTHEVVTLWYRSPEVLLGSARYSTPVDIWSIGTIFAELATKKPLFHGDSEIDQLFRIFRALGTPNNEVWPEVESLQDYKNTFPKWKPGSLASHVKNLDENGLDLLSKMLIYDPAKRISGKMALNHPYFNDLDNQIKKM
Chain of CDK1:CCNB1 (P14635 whole entry partner): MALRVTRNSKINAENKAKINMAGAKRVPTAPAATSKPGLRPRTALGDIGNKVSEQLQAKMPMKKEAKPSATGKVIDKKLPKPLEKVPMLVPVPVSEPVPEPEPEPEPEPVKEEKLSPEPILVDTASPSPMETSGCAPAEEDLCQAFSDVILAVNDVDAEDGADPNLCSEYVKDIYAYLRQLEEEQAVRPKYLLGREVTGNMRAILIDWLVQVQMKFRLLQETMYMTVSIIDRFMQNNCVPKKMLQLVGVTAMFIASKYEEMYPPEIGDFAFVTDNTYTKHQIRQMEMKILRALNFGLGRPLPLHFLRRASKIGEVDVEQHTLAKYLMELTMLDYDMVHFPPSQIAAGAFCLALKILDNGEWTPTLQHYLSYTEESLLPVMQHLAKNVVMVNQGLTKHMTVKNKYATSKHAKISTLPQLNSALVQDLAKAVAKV
Procedure, shortened: (§4)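 Intracellular target engagement was measured by NanoBRET ratio (460 nm/610 nm) in live MCF-7 cells transiently carrying CDK4:CCND1 (Tracer K-7, 100 μM stock) or CDK1:CCNB1 (Tracer K-9, 400 μM stock).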

CDK4:CCND1 = CDK4:CCND1 (Homo sapiens (Human), UniProt P11802); assay: NanoBRET assay in MCF-7 cells, CDK4; type: cell-based; settings: NanoBRET, transfected MCF-7 cells, 2 hours; n = 1 or average; read-out: CDK4 IC50
Chain of CDK4:CCND1 (P11802 whole entry): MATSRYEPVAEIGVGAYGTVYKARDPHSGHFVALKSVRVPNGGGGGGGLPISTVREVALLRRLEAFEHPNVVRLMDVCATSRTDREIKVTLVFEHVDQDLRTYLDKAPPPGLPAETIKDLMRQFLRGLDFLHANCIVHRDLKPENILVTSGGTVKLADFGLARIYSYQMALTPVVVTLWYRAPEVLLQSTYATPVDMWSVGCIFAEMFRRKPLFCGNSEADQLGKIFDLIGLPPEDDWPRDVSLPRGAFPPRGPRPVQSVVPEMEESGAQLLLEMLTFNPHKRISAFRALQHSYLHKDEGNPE
Chain of CDK4:CCND1 (P24385 whole entry partner): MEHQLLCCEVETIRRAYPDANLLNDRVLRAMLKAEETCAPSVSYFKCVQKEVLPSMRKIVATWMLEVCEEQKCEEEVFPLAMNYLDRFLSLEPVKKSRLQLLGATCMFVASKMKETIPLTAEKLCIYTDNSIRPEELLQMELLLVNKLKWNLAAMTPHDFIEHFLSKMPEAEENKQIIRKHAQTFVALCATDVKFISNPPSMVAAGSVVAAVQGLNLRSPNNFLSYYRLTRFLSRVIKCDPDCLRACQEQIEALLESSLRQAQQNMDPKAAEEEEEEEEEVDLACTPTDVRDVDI
Procedure, shortened: as §4

[7] = system: NPM phosphorylation (Thr199, CDK2-cyclin E complex); assay: NPM phosphorylation imaging assay in MCF-7 cells; type: cell-based; settings: 4N DNA cells
Procedure, shortened: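 MCF-7 cells were fixed, permeabilised and immunostained, then imaged for phospho-NPM (Thr199), a CDK2-cyclin E site. Analysis was gated on 4N-DNA cells by Hoechst staining. Signals were normalised to controls and fitted for IC50.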

[8] = CLint assessment in human liver microsomes (HLM); type: in vitro ADME; settings: 1 μM
Procedure, shortened: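 Microsomes preincubated 8 min with NADPH, then compound added and incubated 30 min at 37° C. Remaining compound measured by LC-MS/MS. t1/2 and CLint calculated, with CLint scaled to incubation volume per mg microsomal protein.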

[9] = Aqueous thermodynamic solubility, shake-flask; type: physicochemical; settings: phosphate buffer 0.1 M, pH 7.4, 24 hours
Procedure, shortened: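 After 24 h stirring at 25° C. in pH 7.4 phosphate buffer (0.1 M), solid-free supernatant from two centrifugations was quantified by UPLC/MS/MS after dilution in water. Compound was added as dried material after DMSO removal.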

[10] = system: 97 targets (GPCRs, ion channels, transporters, enzymes, kinases); assay: Secondary pharmacology panel (Eurofins CEREP); settings: compared with Compound 6
Experimental: Secondary pharmacology assays were performed at Eurofins CEREP using standard experimental techniques. Specifically, radioligand binding assays were used to assess the ability of test compounds to interact with G-protein coupled receptors (GPCRs), ion channels, and transmembrane transporters. Assays measuring substrate turnover or phosphorylation by isolated proteins were used for enzyme and kinase targets, allowing direct determination of the mode of action of the tested compounds.

[11] = Homo sapiens, MCF7, 2 h, MCF-7 cells, 2 hours
[12] = aqueous phosphate buffer, 25 °C, pH 7.4, aqueous buffer, thermodynamic from solid

## CCn1cnc2c(N[C@H]3CCN(S(C)(=O)=O)C3)nc(N[C@@H](CO)C(C)C)nc21 [Example 28, (R)-2-((9-ethyl-6-(((S)-1-(methylsulfonyl)pyrrolidin-3-yl)amino)-9H-purin-2-yl)amino)-3-methylbutan-1-ol]
[1]; [11]
  IC50: > 30000 nM
MCF-7 cells; Homo sapiens, MCF7, 48 h
  IC50: 699 nM
OVCAR3 cells [2]; Homo sapiens, OVCAR-3, 48 h
  IC50: 186 nM
[3]
  kinase inhibition profile: broadly similar kinase inhibition profiles to Compound 6

## CC(C)[C@H](CO)Nc1nc(N[C@H]2CCN(S(C)(=O)=O)C2)c2ncn(C(C)C)c2n1 [Compound 20, (R)-2-((9-isopropyl-6-(((S)-1-(methylsulfonyl)pyrrolidin-3-yl)amino)-9H-purin-2-yl)amino)-3-methylbutan-1-ol]
[1]; Homo sapiens, MCF7, 2 h
  IC50: > 30000 nM
MCF-7 cells; Homo sapiens, MCF7, 48 h
  IC50: 665 nM
OVCAR3 cells [2]; Homo sapiens, OVCAR-3, 48 h
  IC50: 224 nM
OVCAR3 cells [4]
  IC50: 188 nM
SKOV3 cells
  IC50: 2520 nM
[5]
  activity and tolerability in xenograft model: active and well tolerated
OVCAR3 cells [6]
  effect on cell cycle phase: increased the population of cells in the G0 and G1 phases
[3]
  kinase inhibition profile: broadly similar kinase inhibition profiles to Compound 6

## CCn1cnc2c(N[C@H]3CCN(S(C)(=O)=O)C3)nc(N[C@@H](CO)C3CC3)nc21 [Example 39, (R)-2-cyclopropyl-2-((9-ethyl-6-(((S)-1-(methylsulfonyl)pyrrolidin-3-yl)amino)-9H-purin-2-yl)amino)ethanol]
[1]; [11]
  IC50: > 30000 nM
MCF-7 cells; Homo sapiens, MCF7, 48 h
  IC50: 658 nM
OVCAR3 cells [2]; Homo sapiens, OVCAR-3, 48 h
  IC50: 288 nM
[3]
  kinase inhibition profile: broadly similar kinase inhibition profiles to Compound 6

## CC[C@H](Nc1nc(N[C@H]2CCN(S(=O)(=O)NC)C2)c2ncn(CC)c2n1)[C@@H](C)O [Example 44, (S)-3-((9-ethyl-2-(((2R,3S)-2-hydroxypentan-3-yl)amino)-9H-purin-6-yl)-amino)-N-methylpyrrolidine-1-sulfonamide]
[1]; [11]
  IC50: > 29100 nM
MCF-7 cells; Homo sapiens, MCF7, 48 h
  IC50: 592 nM
OVCAR3 cells [2]; Homo sapiens, OVCAR-3, 48 h
  IC50: 242 nM
OVCAR3 cells [4]
  IC50: 133 nM
SKOV3 cells
  IC50: 9150 nM
[3]
  kinase inhibition profile: broadly similar kinase inhibition profiles to Compound 6

## CCn1cnc2c(N[C@H]3CCN(S(=O)(=O)NC)C3)nc(N[C@@H](C)[C@@H](O)C(F)(F)F)nc21 (single isomer, unassigned) [Example 50, (S)-3-((9-ethyl-2-(((2R*,3S*)-4,4,4-trifluoro-3-hydroxybutan-2-yl)amino)-9H-purin-6-yl)amino)-N-methylpyrrolidine-1-sulfonamide]
CDK2:CCNE1
  IC50: 64 nM
CDK1:CCNB1
  IC50: 2350 nM
CDK4:CCND1
  IC50: 14200 nM
[7]; 2 hours
  IC50: 412 nM
[1]; MCF-7 cells, 2 hours
  IC50: > 30000 nM
MCF-7 cells
  IC50: 2760 nM
OVCAR3 cells [2]
  IC50: 1220 nM
[8]
  HLM CLint: 36.3 µL/min/mg
[9]; 25° C.
  solubility at 24 h: 23.1 µM (≈ 10.8 µg/mL)

## CC[C@H](Nc1nc(N[C@H]2CCN(S(=O)(=O)c3ccn[nH]3)C2)c2ncn(CC)c2n1)[C@@H](C)O [Example 62, (2R,3S)-3-((6-(((S)-1-((1H-pyrazol-5-yl)sulfonyl)pyrrolidin-3-yl)amino)-9-ethyl-9H-purin-2-yl)amino)pentan-2-ol]
[1]; [11]
  IC50: > 30000 nM
MCF-7 cells; Homo sapiens, MCF7, 48 h
  IC50: 1400 nM
OVCAR3 cells [2]; Homo sapiens, OVCAR-3, 48 h
  IC50: 441 nM
[9]; [12]
  solubility at 24 h: > 1000 µM
[3]
  kinase inhibition profile: broadly similar kinase inhibition profiles to Compound 6
[10]
  secondary pharmacology profile: broadly similar secondary pharmacology to Compound 6

## CCn1cnc2c(N[C@H]3CCN(S(=O)(=O)CCOC)C3)nc(N[C@@H](CO)C(C)C)nc21 [Example 42, (R)-2-((9-ethyl-6-(((S)-1-((2-methoxyethyl)sulfonyl)pyrrolidin-3-yl)-amino)-9H-purin-2-yl)amino)-3-methylbutan-1-ol]
CDK2:CCNE1
  IC50: 27 nM
CDK1:CCNB1
  IC50: 875 nM
CDK4:CCND1
  IC50: 4500 nM
[7]; Homo sapiens, MCF7, 2 h
  IC50: 310 nM
[1]; [11]
  IC50: > 30000 nM
MCF-7 cells; Homo sapiens, MCF7, 48 h
  IC50: 925 nM
OVCAR3 cells [2]; Homo sapiens, OVCAR-3, 48 h
  IC50: 428 nM
[8]
  HLM CLint: 196 µL/min/mg
[9]; [12]
  solubility at 24 h: 167 µM (≈ 76.1 µg/mL)

## O=S(=O)(c1ncc[nH]1)N1C[C@@H](F)[C@H](Nc2nc(N[C@@H](CO)C3CC3)nc3c2ncn3C(F)F)C1 (relative stereo) [Example 61, (R)-2-((6-(((3R*,4R*)-1-((1H-imidazol-2-yl)sulfonyl)-4-fluoropyrrolidin-3-yl)amino)-9-(difluoromethyl)-9H-purin-2-yl)amino)-2-cyclopropylethan-1-ol]
CDK2:CCNE1
  IC50: 5 nM
CDK1:CCNB1
  IC50: 115 nM
CDK4:CCND1
  IC50: 800 nM
[7]; Homo sapiens, MCF7, 2 h
  IC50: 17 nM
[1]; [11]
  IC50: 1700 nM
OVCAR3 cells [2]; Homo sapiens, OVCAR-3, 48 h
  IC50: 53 nM
OVCAR3 cells [4]
  IC50: 34 nM
SKOV3 cells
  IC50: 514 nM
